Measurements: US20120141977A1, “HEPATITIS B VIRUS MUTATION STRAIN WITH RESISTANCE TO ADEFOVIR DIPIVOXIL AND THE USES THEREOF” (priority 2009, published 2012)

Key:
HBV wild strain = assay: Drug sensitivity test: HepG2 cells transiently transfected with wild-type HBV plasmid, intracellular replication intermediates by Southern blotting; format: cell-based; conditions: Hepatitis B virus, 168 h, HBV replication intermediates in cytoplasm, Southern blotting gray values, treated 7 days, read-out: half maximal inhibitory concentration (IC50) for the wild strain
Procedure: (§1) After recovery, Human hepatoma cell strain HepG2 grew as the adherent monolayer cells in the DMEM medium with 10% fetal bovine serum at 37° C. in 5% CO2. Every 3 to 5 days, cells were passaged one generation in a ratio of 1:3. 24 hours before transfection, cells were inoculated in an appropriate amount (about 2×10^5 per well in a 6-well plate). Preferably, cell density was 40 to 60% for transfection (also, 80 to 90% as well). 1 hour before transfection, the medium was replaced with fresh complete culture medium (2 ml per well), and incubated at 37° C. in 5% CO2. To each well, for example, saline for injection was added to 2 μg of DNA to make a total volume of 100 μl, followed by mixing gently and standing at room temperature. Saline for injection was added to 2 μl of VigoFect to make a total volume of 100 μl, followed by mixing gently and standing at room temperature for 5 minutes. The diluted VigoFect was added to the diluted DNA solution dropwise, mixed gently, followed by keeping the resultant working solution for transfection stand at room temperature for 15 minutes. The transfection working solution was mixed gently and 2 ml of medium was added thereto dropwise, mixed gently and then incubated at 37° C. in 5% CO2. 2 days after transfection, the medium was replaced and ADV were added thereto with the final concentrations of 0, 0.01, 0.1, 1, 5, 10 and 20 μM. […]

[1] = system: HBV rtE218G mutant strain; assay: Drug sensitivity test: HepG2 cells transiently transfected with rtE218G mutagenic HBV plasmid, intracellular replication intermediates by Southern blotting; format: cell-based, hepatitis B virus
Procedure: as §1

[2] = system: rtL180M +M204V and rtN236T; conditions: cited from earlier work

In the case of `Nc1ncnc2c1ncn2CCOCP(=O)(O)O` [adefovir], the IC50 (HBV wild strain) is reported as 1.7 µM, the IC50 ([1]; Hepatitis B virus, 168 h, HepG2 cells, HBV replication intermediates in cytoplasm, Southern blotting gray values, treated 7 days, read-out: half maximal inhibitory concentration (IC50) for the rtE218G mutant strain) is reported as 9.3 µM and the “IC50 of rtE218G mutant strain relative to that of the wild strain” value ([1]; ratio mutant IC50 / wild IC50) is reported as 5.5 times. For the same compound, the “decrease of sensitivity of combined three mutations compared with rtN236T single mutation” value [2] was 2 folds.
